Test results taken from the Deep4Chem optical property database.
Blank lines part the entries; values can stand above or below the compound they belong to.

Assay: solvent given as SMILES

- fluorescence lifetime (in CO): 0.912 ns
SMILES: CC1(C)C(/C=C/C2=C(Oc3ccc(CCN=C=S)cc3Br)C(=C/C=C3/N(CCCS(=O)(=O)[O-])c4ccccc4C3(C)C)/CCC2)=[N+](CCCS(=O)(=O)[O-])c2ccccc21

- fluorescence lifetime (in O): 1.4 ns
SMILES: Cc1ccc(N(CC(=O)[O-])CC(=O)[O-])cc1OCCOc1cc(-c2cc3ccc(C(=O)[O-])cc3[nH]2)ccc1N(CC(=O)[O-])CC(=O)[O-]

SMILES: COc1ccc(-c2nc(C)cc(-c3ccc(-n4c5ccccc5c5ccccc54)cc3)n2)cc1
- fluorescence lifetime (in C1CCOC1): 3.76 ns
- fluorescence lifetime (in CN(C)C=O): 6.51 ns
- fluorescence lifetime (in Cc1ccccc1): 1.87 ns
- fluorescence lifetime (in ClC(Cl)Cl): 3.91 ns

- fluorescence lifetime (in ClCCl): 1.92 ns
SMILES: N#Cc1ccc(-n2c(-c3ccc(-c4ccc(-c5nc6c7ccccc7c7ccccc7c6n5-c5ccc(C#N)c6ccccc56)cc4)cc3)nc3c4ccccc4c4ccccc4c32)c2ccccc12

- fluorescence lifetime (in ClC(Cl)Cl): 4.9 ns
SMILES: COc1ccc(N(c2ccc(OC)cc2)c2ccc(-c3ccc(-c4ccc(-c5ccc(-c6ccc(N(c7ccc(OC)cc7)c7ccc(OC)cc7)cc6)s5)c5nsnc45)s3)cc2)cc1

- fluorescence lifetime (in O): 4.2 ns
SMILES: O=C(O)CCCCCNC(=O)c1cccc2c(=O)c3ccccc3[nH]c12

- fluorescence lifetime (in ClCCl): 1.76 ns
SMILES: CCCCn1c(-c2ccc(-c3nnc(-c4cccs4)o3)cc2)nc2c3ccccc3c3ccccc3c21

- fluorescence lifetime (in ClC(Cl)Cl): 0.4 ns
SMILES: O=c1oc2ccccc2cc1-c1cccc(-c2cc3ccccc3oc2=O)c1

- fluorescence lifetime (in CC#N): 5 ns
SMILES: Cc1ccc(C)n1-c1ccccc1

- fluorescence lifetime (in ClC(Cl)Cl): 2.34 ns
SMILES: C[N+]1=c2cc3c(cc2C(C)(C)CC1)=C(c1ccccc1C(=O)O)c1cc2c(cc1O3)Oc1cc3c(cc1=C2c1ccccc1C(=O)O)C(C)(C)CC[N+]=3C

- fluorescence lifetime (in C1CCOC1): 19.2 ns
- fluorescence lifetime (in CN(C)C=O): 12.5 ns
SMILES: O=C(O)c1ccc(C(=O)O)c2cc3ccccc3cc12

- fluorescence lifetime (in C1CCOC1): 4.14 ns
SMILES: COc1cc2c(cc1-c1ccc(N(c3ccccc3)c3ccccc3)cc1)Cc1c3c(c4c(c1-2)-c1cc(OC)c(-c2ccc(N(c5ccccc5)c5ccccc5)cc2)cc1C4)C(=O)N(CCC(C)C)C3=O

- fluorescence lifetime (in ClCCl): 17.1 ns
SMILES: CCN(CC)c1ccc2c(c1)oc(=O)c1cc3c(C)nn(-c4ccccc4)c3nc12

SMILES: N#Cc1c(-n2c3ccc(-c4ccccc4)cc3c3cc(-c4ccccc4)ccc32)c(-n2c3ccc(-c4ccccc4)cc3c3cc(-c4ccccc4)ccc32)c(C#N)c(-n2c3ccc(-c4ccccc4)cc3c3cc(-c4ccccc4)ccc32)c1-n1c2ccc(-c3ccccc3)cc2c2cc(-c3ccccc3)ccc21
- fluorescence lifetime (in Cc1ccccc1): 9 ns

- fluorescence lifetime (in CC#N): 1.09 ns
- fluorescence lifetime (in CCCCCC): 0.4 ns
SMILES: C(=C\c1ccc2ccccc2c1)/c1ccc(N(c2ccccc2)c2ccccc2)cc1

SMILES: Cc1ccc(C2=C3C=CC(Cl)=[N+]3[B-](F)(F)n3c(Cl)ccc32)cc1
- fluorescence lifetime (in C1CCCCC1): 2.1 ns
- fluorescence lifetime (in C1CCOC1): 2.1 ns
- fluorescence lifetime (in CC#N): 1.87 ns
- fluorescence lifetime (in CCOC(C)=O): 2.07 ns
- fluorescence lifetime (in CO): 1.88 ns
- fluorescence lifetime (in Cc1ccccc1): 3.26 ns
- fluorescence lifetime (in ClC(Cl)Cl): 3.66 ns

SMILES: CCN1\C(=C/C=C/C=C/C2=[N+](CC)c3ccc4cc(Br)ccc4c3C2(C)C)C(C)(C)c2c1ccc1cc(Br)ccc21
- fluorescence lifetime (in C1CCOC1): 1.37 ns
- fluorescence lifetime (in CC#N): 1.01 ns
- fluorescence lifetime (in CC(C)=O): 1.12 ns
- fluorescence lifetime (in CCO): 1.03 ns
- fluorescence lifetime (in CN(C)C=O): 1.39 ns
- fluorescence lifetime (in CO): 0.84 ns
- fluorescence lifetime (in CS(C)=O): 1.5 ns
- fluorescence lifetime (in ClCCl): 1.46 ns

- fluorescence lifetime (in ClCCl): 2.5 ns
SMILES: CCCCCCCCCCCCNc1cccc2[n+]1[B-](F)(F)n1c(c3cccc4cccc1c43)=N2

- fluorescence lifetime (in C1CCOC1): 7.1 ns
SMILES: CN(C)c1ccc(C(=Cc2ccc(C#N)cc2)c2ccc(N(C)C)cc2)cc1

- fluorescence lifetime (in CN(C)C=O): 1.01 ns
SMILES: CCCCCCCCC1(CCCCCCCC)c2cc(-c3ccc([Si](C)(C)C)cc3)ccc2-c2ccc(-c3ccc([Si](C)(C)C)cc3)cc21

- fluorescence lifetime (in CC#N): 3.03 ns
- fluorescence lifetime (in ClCCl): 2.75 ns
SMILES: CCN(CC)c1ccc(/N=N/c2nc3ccc(Br)cc3s2)cc1

- fluorescence lifetime (in ClCCl): 1.6 ns
SMILES: COCCOCCOCCOCC(COCCOCCOCCOC)Oc1cc(/C=C/c2ccc(/C=C(\C#N)c3ccccc3)cc2)c(OC(COCCOCCOCCOC)COCCOCCOCCOC)cc1/C=C/c1ccc(/C=C(\C#N)c2ccccc2)cc1

- fluorescence lifetime (in ClC(Cl)Cl): 0.958 ns
SMILES: COc1ccc(C2=Cc3c4ccccc4cc[n+]3[B-](F)(F)O2)cc1

- fluorescence lifetime (in C1CCOC1): 1.5 ns
SMILES: C(=C\c1ccc(N(c2ccc(/C=C/c3ccc(N(c4ccccc4)c4ccccc4)cc3)cc2)c2ccc(-c3nc4ccccc4nc3-c3ccc(N(c4ccc(/C=C/c5ccc(N(c6ccccc6)c6ccccc6)cc5)cc4)c4ccc(/C=C/c5ccc(N(c6ccccc6)c6ccccc6)cc5)cc4)cc3)cc2)cc1)/c1ccc(N(c2ccccc2)c2ccccc2)cc1

- fluorescence lifetime (in ClCCl): 2.23 ns
SMILES: COC(=O)c1[nH]c(-c2ccccc2)c2nnc3ccc(OC)cc3c12

- fluorescence lifetime (in O): 13 ns
SMILES: O=C(O)CCCCCn1c2ccccc2c(=O)c2cc(S(=O)(=O)O)ccc21

- fluorescence lifetime (in CC1CCCCC1): 0.609 ns
- fluorescence lifetime (in CC#N): 1.19 ns
- fluorescence lifetime (in CO): 2.17 ns
SMILES: COC(=O)C(Cc1ccc2oc(-c3ccncc3)nc2c1)NC(=O)OC(C)(C)C (centres undefined)

SMILES: O=C1c2ccc(N(c3ccccc3)c3ccccc3)cc2C(=O)c2ccc(N(c3ccccc3)c3ccccc3)cc21
- fluorescence lifetime (in Cc1ccccc1): 5.3 ns
- fluorescence lifetime (in c1ccc2c(c1)c1ccccc1n2-c1ccc(-c2ccc(-n3c4ccccc4c4ccccc43)cc2)cc1): 4.9 ns

SMILES: Cc1ccc2ccccc2c1
- fluorescence lifetime (in C1CCCCC1): 114 ns

- fluorescence lifetime (in C1CCCCC1): 2.7 ns
- fluorescence lifetime (in C1CCOC1): 4.91 ns
- fluorescence lifetime (in C1COCCO1): 2.38 ns
- fluorescence lifetime (in CC#N): 0.558 ns
- fluorescence lifetime (in CCOC(C)=O): 2.46 ns
- fluorescence lifetime (in CN(C)C=O): 2.22 ns
SMILES: Cc1cccc(Nc2ccccc2C(=O)O)c1C

- fluorescence lifetime (in C1CCCCC1): 9.32 ns
- fluorescence lifetime (in C1CCOC1): 23.6 ns
- fluorescence lifetime (in CC#N): 19.8 ns
SMILES: Cc1ccc2nc3c(nc2c1)c(-c1ccccc1)nn3C

SMILES: COc1ccc(N(c2ccccc2)c2ccc(OC)cc2)cc1
- fluorescence lifetime (in Cc1ccccc1): 2.27 ns

- fluorescence lifetime (in CC#N): 5.1 ns
SMILES: CC1=CC(/C=C/c2ccc([N+](C)(C)C)cc2)=[N+]2C1=C(c1ccc(I)cc1)c1c(C)cc(/C=C/c3ccc([N+](C)(C)C)cc3)n1[B-]2(F)F

- fluorescence lifetime (in CN(C)C=O): 3.1 ns
SMILES: O=C1NC(=O)c2ccc3c4ccc5c6c(ccc(c7ccc1c2c73)c64)C(=O)N(c1ccc(Cl)cc1)C5=O

- fluorescence lifetime (in ClCCCl): 0.16 ns
SMILES: N#Cc1ccc2nc3c(=O)[nH]c(=O)[nH]c3nc2c1

- fluorescence lifetime (in ClCCl): 3.36 ns
SMILES: COC(=O)c1[nH]c(-c2ccccc2)c2nnc3c4ccccc4oc3c12

- fluorescence lifetime (in CC#N): 7.5 ns
- fluorescence lifetime (in CO): 9.9 ns
- fluorescence lifetime (in ClCCl): 6.3 ns
- fluorescence lifetime (in OCC(O)CO): 11 ns
SMILES: CCCn1c2cccc3c2[c+]2c4c1cccc4n(CCC)c1cccc(c12)n3CCC

- fluorescence lifetime (in ClCCl): 3.8 ns
SMILES: CC(C)(C)c1ccc(-n2c(-c3ccc(N(c4ccc(-c5ccc(N(c6ccc(-c7nc8c9ccccc9c9ccccc9c8n7-c7ccc(C(C)(C)C)cc7)cc6)c6ccc(-c7nc8c9ccccc9c9ccccc9c8n7-c7ccc(C(C)(C)C)cc7)cc6)cc5)cc4)c4ccc(-c5nc6c7ccccc7c7ccccc7c6n5-c5ccc(C(C)(C)C)cc5)cc4)cc3)nc3c4ccccc4c4ccccc4c32)cc1

- fluorescence lifetime (in ClC(Cl)Cl): 1.04 ns
SMILES: CC1(C)c2ccccc2-c2ccc(N3c4ccc(-c5ccc(/C=C6\C(=O)c7ccc(C(=O)O)cc7C6=O)s5)cc4C4CCCC43)cc21 (centres undefined)

- fluorescence lifetime (in O): 1.13 ns
SMILES: COc1cc(N2CCOCCOCCN(c3cc(OC)c(NC(=O)c4ccc(-c5c6cc(Cl)c(=O)cc-6oc6cc([O-])c(Cl)cc56)c(C(=O)[O-])c4)cc3OC)CCOCC2)c(OC)cc1NC(=O)c1ccc(-c2c3cc(Cl)c(=O)cc-3oc3cc([O-])c(Cl)cc23)c(C(=O)[O-])c1

- fluorescence lifetime (in CCO): 2.72 ns
SMILES: CN(C)c1ccc(-c2ccc(C#N)s2)s1

SMILES: Cc1ccc2c(c1)C(c1ccccc1)(c1ccccc1)c1cc(C)ccc1N2c1ccc2c(c1)Oc1ccccc1B2c1c(C(C)C)cc(C(C)C)cc1C(C)C
- fluorescence lifetime (in Cc1ccccc1): 23 ns
- fluorescence lifetime (in O=P(c1ccccc1)(c1ccccc1)c1ccc2oc3ccc(P(=O)(c4ccccc4)c4ccccc4)cc3c2c1): 28 ns

- fluorescence lifetime (in CC#N): 2.9 ns
- fluorescence lifetime (in CCCCCC): 1.5 ns
SMILES: C/C=C/c1cc(OC)cc(OC)c1

- fluorescence lifetime (in C1COCCO1): 2.8 ns
SMILES: CCC12C(=C3C(=C4c5ccc(-c6ccc(C(C)=O)cc6)cc5S(=O)(=O)C41CC)C(F)(F)C(F)(F)C3(F)F)c1ccc(-c3ccc(C(C)=O)cc3)cc1S2(=O)=O (centres undefined)

SMILES: COC(=O)c1ccc(C2=C3C=CC(C)=[N+]3[B-](F)(F)n3c(C)ccc32)cc1
- fluorescence lifetime (in C1CCCCC1): 0.54 ns
- fluorescence lifetime (in Cc1ccccc1): 0.82 ns

- fluorescence lifetime (in CC1CCCCC1): 0.358 ns
- fluorescence lifetime (in CC#N): 0.003 ns
- fluorescence lifetime (in CO): 0.01 ns
SMILES: COC(=O)C(NC(=O)OC(C)(C)C)c1ccc2oc(-c3ccc(OC(=O)c4ccccc4)cc3OC(=O)c3ccccc3)nc2c1 (centres undefined)

SMILES: N#CC=C(c1ccc(N2c3ccccc3Oc3ccccc32)cc1)c1ccc(N2c3ccccc3Oc3ccccc32)cc1
- fluorescence lifetime (in Cc1ccccc1): 5.84 ns

SMILES: CC1(C)c2ccccc2N(c2ccccc2)c2ccc(-c3nc(-c4ccccc4)nc(-c4ccccc4)n3)cc21
- fluorescence lifetime (in O=P(c1ccccc1)(c1ccccc1)c1ccccc1Oc1ccccc1P(=O)(c1ccccc1)c1ccccc1): 4.37 ns

- fluorescence lifetime (in ClCCl): 0.94 ns
SMILES: C[Si]1(C)c2cc(-c3ccc(-c4cccs4)s3)ccc2C=Cc2ccc(-c3ccc(-c4cccs4)s3)cc21

- fluorescence lifetime (in CC#N): 1.43 ns
SMILES: COc1ccc(-c2csc(/C(C#N)=C/c3ccc(C#N)cc3)n2)cc1

- fluorescence lifetime (in CC#N): 0.336 ns
SMILES: C(#Cc1nccnc1C#Cc1ccccc1)c1ccccc1

SMILES: CC(C)(C)c1ccc2c(c1)c1cc(C(C)(C)C)ccc1n2-c1cc(N2c3ccccc3C(c3ccccc3)(c3ccccc3)c3ccccc32)cc(-n2c3ccc(C(C)(C)C)cc3c3cc(C(C)(C)C)ccc32)c1C#N
- fluorescence lifetime (in Cc1ccccc1): 14.2 ns

- fluorescence lifetime (in C1CCOC1): 2.05 ns
SMILES: CCCCCCOc1ccc(/C=C/c2ccc(N(c3ccc(/C=C/c4ccc(OCCCCCC)cc4)cc3)c3ccc(-c4nc5ccccc5nc4-c4ccc(N(c5ccc(/C=C/c6ccc(OCCCCCC)cc6)cc5)c5ccc(/C=C/c6ccc(OCCCCCC)cc6)cc5)cc4)cc3)cc2)cc1

- fluorescence lifetime (in ClC(Cl)Cl): 1.21 ns
SMILES: F[B-]1(F)OC(c2ccc(Br)cc2)=Cc2ccc3ccccc3[n+]21

- fluorescence lifetime (in ClCCl): 0.24 ns
SMILES: COc1ccc(/C=C/C2=C3CCc4ccccc4C3=[O+][B-](F)(F)O2)cc1

- fluorescence lifetime (in C1CCCCC1): 2.4 ns
SMILES: C(#Cc1cccc2cc(-c3ccccc3)c3cc(-c4cc[b-]5c(c4)c(-c4ccccc4)cc4cccc(C#Cc6ccccc6)[n+]54)cc[b-]3[n+]12)c1ccccc1

SMILES: COC(=O)/C=C/c1ccc2ccc3cccc4ccc1c2c34
- fluorescence lifetime (in C1CCOC1): 2.8 ns
- fluorescence lifetime (in CC#N): 2.4 ns
- fluorescence lifetime (in CC(C)=O): 2.6 ns

- fluorescence lifetime (in CC#N): 4.11 ns
- fluorescence lifetime (in ClCCl): 3.53 ns
SMILES: Nc1nc2ccc([N+](=O)[O-])cc2s1

- fluorescence lifetime (in C1CCCCC1): 2 ns
SMILES: C[Si](C)(C)C#Cc1ccc(C#C[Si](C)(C)C)c2ccccc12
